These are literature values, as cited in patent EP4755400A1, “ANTIBODY-DRUG CONJUGATE CONTAINING GLYCOSYLPYRIDINE LINKER” (Novocodex Biopharmaceuticals Co., Ltd., priority 2023, dated 2025).

The test system of this series is human carcinoma lines.

For the compound `COc1cccc2c1C(=O)c1c(O)c3c(c(O)c1C2=O)C[C@@](O)(C(=O)CO)C[C@@H]3O[C@H]1C[C@H](N)[C@H](O)[C@H](C)O1` [doxorubicin], the IC50 was 100 to 200 nM.

In general, IC50 refers to the concentration at which inhibition is half-maximal.
